Series [1] relates to MRSA USA500 (NRS385). Description: MIC/MBC broth microdilution, NRS385 (USA500). The class given is cell-based. As to conditions: Staphylococcus aureus; Table 2; MRSA USA500; read-out: Minimum Inhibitory Concentration. An outline of the steps:
(§1)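 Using the CLSI broth microdilution procedure, minimum inhibitory concentrations were determined against the MRSA isolates, each in triplicate.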

Series [2] deals with VISA HIP07256 (NRS19). The experiment in a line: MIC/MBC broth microdilution, NRS19 (VISA HIP07256). The class given is cell-based. Conditions: Staphylococcus aureus; Table 2; VISA HIP07256; read-out: Minimum Inhibitory Concentration. The gist of the method:
as §1

For series [3], the system named is MRSA USA700. The experiment in a line: MIC broth microdilution, MRSA USA700. The class given is cell-based. As to conditions: Staphylococcus aureus, Table 2, read-out: Minimum Inhibitory Concentration. Here is the method:
(§2) Determination of minimum inhibitory concentration (MIC). The MICs of the lead thiazole compound (compound 1a) and nine derivatives tested against all 18 MRSA strains were determined, in triplicate samples, using the broth microdilution method in accordance with the recommendations contained in the CLSI guidelines.

Series [4] relates to murine macrophage cells (J774.A1). Description: In vitro cytotoxicity analysis, MTS assay. Conditions: 16 μM, 24 hours. Format: cell-based. Here is the method:
In vitro cytotoxicity analysis: Compounds were assayed at concentrations of 2 μM, 4 μM, 8 μM, and 16 μM against a macrophage cell line (J774.A1) to determine the potential toxic effect in vitro. Murine macrophage cells were cultured in Dulbeco's Modified Eagle Medium (Sigma-Aldrich, St. Louis, Mo., USA) with 10% Fetal Bovine Serum (USA Scientific, Inc.) at 37° C. with 5% CO2. Controls received DMSO alone at a concentration equal to that in drug-treated cell samples. The cells were incubated with the compounds in a 96-Well Plate at 37° C. and 5.0% CO2 for 24 hours prior to addition of the assay reagent MTS 3-(4,5-dimethylthiazol-2-yl)-5-(3-carboxymethoxyphenyl)-2-(4-sulfophenyl)-2H-tetrazolium) (Promega, Madison, Wis., USA). The reagent measures the succinate dehydrogenase mitochondrial activity as an indicator of cell viability and proliferation. Corrected absorbance readings (actual absorbance readings for each treatment subtracted from background absorbance) were taken using a kinetic ELISA microplate reader (Molecular Devices, Sunnyvale, Calif., USA). The quantity of viable cells after treatment with each compound was expressed as a percentage of the control, DMSO.

Series [5] deals with MRSA ATCC 700699 (NRS1, VISA). Description: MIC/MBC broth microdilution, NRS1 (ATCC 700699). Format: cell-based. Conditions: Staphylococcus aureus; Table 2; MRSA ATCC 700699; read-out: Minimum Inhibitory Concentration. An outline of the steps: as §1
Series [6] has as its system NRS107. Description: MIC/MBC broth microdilution, NRS107. Format: cell-based. As to conditions: Staphylococcus aureus, Table 2, read-out: Minimum Inhibitory Concentration. The gist of the method:
as §1

Series [7] has as its system MRSA USA200. Description: MIC broth microdilution, MRSA USA200. Conditions: Staphylococcus aureus; Table 2; MRSA USA200; read-out: Minimum Inhibitory Concentration. The class given is cell-based. Here is the method:
as §2

For series [8], the system named is NRS194. The experiment in a line: MIC/MBC broth microdilution, NRS194. Format: cell-based. Conditions: Staphylococcus aureus, Table 2, read-out: Minimum Inhibitory Concentration. An outline of the steps:
as §1

Series [9] relates to VRSA (VRS10). Description: MIC/MBC broth microdilution, VRSA (VRS10). The class given is cell-based, Staphylococcus aureus. As to conditions: VRSA; for MIC: Staphylococcus aureus, Table 2, read-out: Minimum Inhibitory Concentration. Here is the method:
as §2

The subject of series [10] is NRS108. Description: MIC broth microdilution, NRS108. Format: cell-based. Conditions: Staphylococcus aureus, Table 2, read-out: Minimum Inhibitory Concentration. Here is the method: as §2
Series [11] deals with NRS119. The experiment in a line: MIC/MBC broth microdilution, NRS119. Conditions: Staphylococcus aureus; Table 2; NRS119; read-out: Minimum Inhibitory Concentration. The class given is cell-based. An outline of the steps: as §1
The subject of series [12] is MRSA USA800. The experiment in a line: MIC broth microdilution, MRSA USA800. As to conditions: Staphylococcus aureus, Table 2, read-out: Minimum Inhibitory Concentration. The class given is cell-based. Here is the method:
as §2

Series [13] relates to MRSA (USA300). Description: Time-kill assay. The class given is cell-based, Staphylococcus aureus. Conditions: 3.0×MIC. Here is the method:
Time-kill assay. […] Viable CFU/mL was determined by serial dilution and plating on trypticase soy agar (TSA) (Becton, Dickinson and Company, Sparks, Md., USA) plates after 0, 2, 4, 6, 8, 10, and 12 hours of incubation at 37° C. to identify the time required to reduce the bacterial cell count by 3-log10.

The test system of series [14] is VISA LIM 3 (NRS37). The experiment in a line: MIC/MBC broth microdilution, NRS37 (VISA LIM 3). Format: cell-based. As to conditions: Staphylococcus aureus; Table 2; VISA LIM 3; read-out: Minimum Inhibitory Concentration. The gist of the method:
as §1

The test system of series [15] is MRSA ATCC 43300. The experiment in a line: MIC/MBC broth microdilution, MRSA ATCC 43300. The class given is cell-based, Staphylococcus aureus. Conditions: Staphylococcus aureus; Table 2; MRSA ATCC 43300; read-out: Minimum Inhibitory Concentration. The gist of the method: as §1
Series [16] relates to MRSA NRS384 (USA300). Description: MIC/MBC broth microdilution, NRS384 (USA300). Format: cell-based. Conditions: Staphylococcus aureus; Table 2; MRSA USA300; read-out: Minimum Inhibitory Concentration. The gist of the method: as §1
Series [17] has as its system MRSA USA400 (NRS123). The experiment in a line: MIC/MBC broth microdilution, NRS123 (USA400). Format: cell-based. Conditions: Staphylococcus aureus; Table 2; MRSA USA400; read-out: Minimum Inhibitory Concentration. An outline of the steps:
as §1

Series [18] concerns MRSA USA100. The experiment in a line: MIC broth microdilution, MRSA USA100. Format: cell-based. As to conditions: Staphylococcus aureus; Table 2; MRSA USA100; read-out: Minimum Inhibitory Concentration. Here is the method:
as §2

In series [19] the test system is 18 different strains of MRSA and VRSA. The experiment in a line: MIC broth microdilution, panel of 18 MRSA and VRSA strains (summary statements). The class given is cell-based, Staphylococcus aureus. Conditions: relative to lead compound 1a; number of strains as stated in the sentence. Here is the method:
as §2

The subject of series [20] is MRSA ATCC 43300. The experiment in a line: Flow cytometry with LIVE/DEAD Fixable Dead Cell Stain. The class given is cell-based, Staphylococcus aureus. Conditions: compound 1a at 4.0×MIC; lysostaphin positive control; 10 minutes at 37° C. Here is the method:
Flow cytometry and LIVE/DEAD® Fixable Dead Cell Stain: The action of the lead compound on cell membrane permeability of MRSA was assayed using the LIVE/DEAD® Fixable Dead Cell Stain Kit (Invitrogen, Eugene, Oreg., USA) according to the manufacturer's instructions. […] Post-treatment cells were fixed with 3.7% formaldehyde; the cells were then screened with a Beckman Coulter FC500 flow cytometer.

Values after ≈ are worked out from the molar mass of the structure shown. “Also recorded” adds a separate entry of the source.

As for `C/C(=N\NC(=N)N)c1sc(-c2ccc3ccccc3c2)nc1C` [Compound 1h, 2-{1-[4-Methyl-2-(naphthalen-2-yl)thiazol-5-yl]ethylidene}hydrazinecarboximid-amide], the MIC is 1.9 mg/L (≈ 5.87 µM) in series [1]; 1.9 mg/L (≈ 5.87 µM) in [2]; 1.9 mg/L (≈ 5.87 µM) in [3]; 3.8 mg/L (≈ 11.7 µM) in series [5]; 1.9 mg/L (≈ 5.87 µM) in series [6]; 1.9 mg/L (≈ 5.87 µM) in series [7]. The MIC in [8] was 1.9 mg/L (≈ 5.87 µM); in series [9] it was 0.5 mg/L (≈ 1.55 µM); in series [10], 1.9 mg/L (≈ 5.87 µM). The “toxicity toward murine macrophage cells” value in series [4] is on record as “exhibited toxicity”. In addition, the “reduction in MIC compared to 1a against VRSA” value in [9] is reported as “near three-fold reduction”.
Turning to `CCCCCc1ccc(-c2nc(C)c(/C(C)=N/NC(=N)N)s2)cc1` [Compound 1d], the MIC in series [1] worked out at 1.1 mg/L (≈ 3.2 µM); in series [3] it was 1.1 mg/L (≈ 3.2 µM); in series [11] it was 1.1 mg/L (≈ 3.2 µM); in series [5] it was 0.5 mg/L (≈ 1.46 µM); in [12], 0.5 mg/L (≈ 1.46 µM); in series [6] it was 0.5 mg/L (≈ 1.46 µM). Besides, the MIC in [8] stood at 1.1 mg/L (≈ 3.2 µM); in series [14], 0.5 mg/L (≈ 1.46 µM); in series [10], 1.1 mg/L (≈ 3.2 µM); in series [15] it was 0.8 mg/L (≈ 2.33 µM). The “bactericidal effect in time-kill assay” value in series [13] (12 hour incubation at 37° C.) is listed as “bactericidal”. Besides, the “time to eliminate MRSA completely (reduce CFU to zero)” value in series [13] (MRSA (USA300)) is listed as “within two hours”.
Consider `C/C(=N\NC(=N)N)c1sc(-c2ccc(C3=CCCCC3)cc2)nc1C` [Compound 7, 2-{1-[2-(4-(1-Cyclohexenyl)phenyl)-4-methylthiazol-5-yl]ethylidene}hydrazine-carboximidamide], for which the MIC is 1.2 mg/L (≈ 3.39 µM) in series [1]; 0.6 mg/L (≈ 1.7 µM) in series [2]; 1.2 mg/L (≈ 3.39 µM) in series [16]; 0.6 mg/L (≈ 1.7 µM) in [17]; 0.6 mg/L (≈ 1.7 µM) in series [11]; 0.6 mg/L (≈ 1.7 µM) in series [5]. In addition, the MIC in series [18] worked out at 1.2 mg/L (≈ 3.39 µM); in series [12], 0.6 mg/L (≈ 1.7 µM); in series [6] it was 0.6 mg/L (≈ 1.7 µM); in series [7] it was 1.2 mg/L (≈ 3.39 µM); in [8], 0.6 mg/L (≈ 1.7 µM); in series [14], 0.6 mg/L (≈ 1.7 µM). Also, the MIC in series [9] was found to be 1.3 mg/L (≈ 3.68 µM); in series [10], 2.3 mg/L (≈ 6.51 µM). Also, the “toxicity toward murine macrophage cells” value in [4] was “none were observed to be toxic”. For the same molecule, the “improvement in the MIC value relative to the lead compound” value in series [19] is listed as “two- to four-fold improvement”.
In the case of `CCCc1ccc(-c2nc(C)c(/C(C)=N/NC(=N)N)s2)cc1` [Compound 1c, 2-{1-[4-Methyl-2-(4-propylphenyl)thiazol-5-yl]ethylidene}hydrazinecarboximidamide], the MIC amounted to 2.3 mg/L (≈ 7.29 µM) in [1]; 2.3 mg/L (≈ 7.29 µM) in [2]; 1.2 mg/L (≈ 3.8 µM) in series [16]; 1.2 mg/L (≈ 3.8 µM) in series [17]; 2.3 mg/L (≈ 7.29 µM) in series [11]; 2.3 mg/L (≈ 7.29 µM) in series [5]. For the same molecule, the MIC in [18] is 1.2 mg/L (≈ 3.8 µM); in series [12] it was 2.3 mg/L (≈ 7.29 µM); in series [7], 2.3 mg/L (≈ 7.29 µM); in [14] it was 1.2 mg/L (≈ 3.8 µM). Moreover, the “toxicity toward murine macrophage cells” value in [4] is on record as “exhibited toxicity; also recorded: toxic”.
For `C/C(=N\NC(=N)N)c1sc(-c2ccc(C(C)(C)C)cc2)nc1C` [Compound 1g, 2-{1-[2-(4-(tert-Butyl)phenyl)-4-methylthiazol-5-yl]ethylidene}hydrazinecarboximid-amide], the MIC in series [1] worked out at 1 mg/L (≈ 3.04 µM); in series [2], 1.9 mg/L (≈ 5.77 µM); in series [16], 1 mg/L (≈ 3.04 µM); in series [5], 1.9 mg/L (≈ 5.77 µM); in [18], 1 mg/L (≈ 3.04 µM); in [12], 1 mg/L (≈ 3.04 µM). Besides, the MIC in [6] turned out to be 1 mg/L (≈ 3.04 µM); in series [7], 1.9 mg/L (≈ 5.77 µM); in [8], 1.9 mg/L (≈ 5.77 µM); in [9], 1 mg/L (≈ 3.04 µM). The “toxicity toward murine macrophage cells” value in series [4] is reported as “exhibited toxicity”. In series [19], the “improvement in the MIC value relative to the lead compound” value is “nearly two- to five-fold enhancement”.
For “lysostaphin: positive control; disrupts the cross-linking of the pentaglycin bridges in the cell wall of staphylococci [reference compound]”, the “cells stained with the dye” value in series [20] was found to be 45%.

The record behind these values is US9353072B2, “Antimicrobial substituted thiazoles and methods of use” (Purdue Research Foundation, priority 2012, dated 2016).
